Data as given in patent publication US6537986B2, “Oxazolidinone antibacterial agents having a thiocarbonyl funtionality” (Pharmacia & Upjohn Company, priority 1997, dated 2003).
In brackets after ≈: the same amount, converted by molar mass. Where two headings read alike, the source gives them in different places.

What was measured:
[1] = tested on: S. pneumoniae (SPNE 9912); experiment: MIC, standard agar dilution method; assay type: cell-based; settings: Streptococcus pneumoniae, incubated overnight at 35° C.
Experimental: (§1) MIC Test Method The in vitro MICs of test compounds were determined by a standard agar dilution method. […] Serial 2-fold dilutions of each sample are made using 1.0 ml aliquots of sterile distilled water. To each 1.0 ml aliquot of drug is added 9 ml of molten Mueller Hinton agar medium. The drug-supplemented agar is mixed, poured into 15×100 mm petri dishes, and allowed to solidify and dry prior to inoculation. Vials of each of the test organisms are maintained frozen in the vapor phase of a liquid nitrogen freezer. Test cultures are grown overnight at 35° C. on the medium appropriate for the organism. Colonies are harvested with a sterile swab, and cell suspensions are prepared in Trypticase Soy broth (TSB) to equal the turbidity of a 0.5 McFarland standard. A 1:20 dilution of each suspension is made in TSB. […] The plates are incubated overnight at 35° C. Following incubation the Minimum Inhibitory Concentration (MIC μg/ml), the lowest concentration of drug that inhibits visible growth of the organism, is read and recorded.

E. Faecium (EFAE 12712) = experiment: MIC, standard agar dilution method; assay type: cell-based; settings: Enterococcus faecium; Table II; key: E. Faecium; agar dilution, Mueller Hinton agar, incubated overnight at 35° C.; read-out: EFAE 12712 MIC
Experimental: as §1

[2] = tested on: Haemophilus influenzae (HINF 30063); experiment: MIC, standard agar dilution method; assay type: cell-based; settings: Haemophilus influenzae, Table II, Mueller Hinton agar, incubated overnight at 35° C.
Experimental: as §1

[3] = tested on: Moraxella catarrhalis (MCAT 30610); experiment: MIC, standard agar dilution method; assay type: cell-based; settings: Moraxella catarrhalis, Table II, Mueller Hinton agar, incubated overnight at 35° C.
Experimental: as §1

S. pyogenes (SPYO 152) = experiment: MIC, standard agar dilution method; assay type: cell-based; settings: Streptococcus pyogenes, incubated overnight at 35° C.
Experimental: as §1

S. aureus (SAUR 9213) = experiment: MIC, standard agar dilution method; assay type: cell-based; settings: Staphylococcus aureus, incubated overnight at 35° C.
Experimental: as §1

[4] = tested on: S. epidermidis (SEPI 30593); experiment: MIC, standard agar dilution method; assay type: cell-based; settings: Staphylococcus epidermidis, Table II, Mueller Hinton agar, incubated overnight at 35° C.
Experimental: as §1

[5] = tested on: Enterococcus faecalis (EFAE 9217); experiment: MIC, standard agar dilution method; assay type: cell-based; settings: incubated overnight at 35° C.
Experimental: as §1

[6] = tested on: S. epidermidis (SEPI 12084); experiment: MIC, standard agar dilution method; assay type: cell-based; settings: Staphylococcus epidermidis, Table 1, Mueller Hinton agar, incubated overnight at 35° C., read-out: Oxazolidinone MIC Values (Gram+) SEPI 12084
Experimental: MIC Test Method The in vitro MICs of test compounds were determined by a standard agar dilution method. A stock drug solution of each analog is prepared in the preferred solvent, usually DMSO:H2O (1:3). Serial 2-fold dilutions of each sample are made using 1.0 ml aliquots of sterile distilled water. To each 1.0 ml aliquot of drug is added 9 ml of molten Mueller Hinton agar medium. The drug-supplemented agar is mixed, poured into 15×100 mm petri dishes, and allowed to solidify and dry prior to inoculation. Vials of each of the test organisms are maintained frozen in the vapor phase of a liquid nitrogen freezer. Test cultures are grown overnight at 35° C. on the medium appropriate for the organism. Colonies are harvested with a sterile swab, and cell suspensions are prepared in Trypticase Soy broth (TSB) to equal the turbidity of a 0.5 McFarland standard. A 1:20 dilution of each suspension is made in TSB. […] The plates are incubated overnight at 35° C. Following incubation the Minimum Inhibitory Concentration (MIC μg/ml), the lowest concentration of drug that inhibits visible growth of the organism, is read and recorded.

[7] = Table 1, Mueller Hinton agar, read-out: Oxazolidinone MIC Values (Gram+) SPNE 9912
[8] = Table II, Mueller Hinton agar, read-out: SPNE 9912 MIC
[9] = Table 1, Mueller Hinton agar, read-out: Oxazolidinone MIC Values (Gram+) SPYO 152
[10] = Table II, Mueller Hinton agar, read-out: SPYO 152 MIC
[11] = Table 1, Mueller Hinton agar, read-out: Oxazolidinone MIC Values (Gram+) SAUR 9213
[12] = Table II, Mueller Hinton agar, read-out: SAUR 9213 MIC
[13] = Enterococcus faecalis, Table 1, Mueller Hinton agar, read-out: Oxazolidinone MIC Values (Gram+) EFAE 9217
[14] = Table II, key: Enterococcus faecalis, Mueller Hinton agar, read-out: EFAE 9217 MIC

MIC [1, 7] [mg/L] | MIC [1, 8] [mg/L] | MIC (E. Faecium (EFAE 12712)) [mg/L] | MIC [2] [mg/L] | MIC [3] [mg/L] | MIC (S. pyogenes (SPYO 152); [9]) [mg/L] | MIC (S. pyogenes (SPYO 152); [10]) [mg/L] | MIC (S. aureus (SAUR 9213); [11]) [mg/L] | MIC (S. aureus (SAUR 9213); [12]) [mg/L] | MIC [4] [mg/L] | MIC [5, 13] [mg/L] | MIC [5, 14] [mg/L] | MIC [6] [mg/L] | melting point [°C] | Structure (SMILES)
2 (≈ 4.44 µM) | 2 (≈ 4.44 µM) | 8 (≈ 17.8 µM) | > 16 | > 16 | 4 (≈ 8.88 µM) | 4 (≈ 8.88 µM) | 8 (≈ 17.8 µM) | 8 (≈ 17.8 µM) | 4 (≈ 8.88 µM) | 4 (≈ 8.88 µM) | 4 (≈ 8.88 µM) | 2 (≈ 4.44 µM) | 222 to 223 | CC(=S)NC[C@H]1CN(c2ccc(N3CCN(c4nnc(C)s4)CC3)c(F)c2)C(=O)O1 [Example 2, (S)-N-[[3-[3-Fluoro-4-[4-(5-methyl-1,3,4-thiadiazol-2-yl)-1-piperazinyl]phenyl]-2-oxo-5-oxazolidinyl]methyl]thioacetamide]
0.5 (≈ 1.36 µM) | 0.5 (≈ 1.36 µM) | 2 (≈ 5.43 µM) | 16 (≈ 43.4 µM) | 8 (≈ 21.7 µM) | 1 (≈ 2.71 µM) | 1 (≈ 2.71 µM) | 2 (≈ 5.43 µM) | 2 (≈ 5.43 µM) | 2 (≈ 5.43 µM) | 2 (≈ 5.43 µM) | 2 (≈ 5.43 µM) | 1 (≈ 2.71 µM) | 158 to 160 | CNC(=S)NC[C@H]1CN(c2ccc(N3CCOCC3)c(F)c2)C(=O)O1 [Example 6, (S)-N-[[3-[3-Fluoro-4-(4-morpholinyl)phenyl]-2-oxo-5-oxazolidinyl]methyl]-N′-methylthiourea]
